Source: publication PMC8396542, “Iterated Virtual Screening-Assisted Antiviral and Enzyme Inhibition Assays Reveal the Discovery of Novel Promising Anti-SARS-CoV-2 with Dual Activity” (International Journal of Molecular Sciences, 2021)

Tests used:
human TMPRSS2 = target: T1, human TMPRSS2 (Homo sapiens, UniProt O15393); assay: fluorogenic protease assay; type: biochemical
T1 construct: enzyme from BPS Bioscience TMPRSS2 fluorogenic assay kit

human furin = target: T2, human furin (Homo sapiens, UniProt P09958); assay: fluorogenic protease assay; type: biochemical
T2 construct: recombinant furin from BPS Bioscience furin protease assay kit

[1] = target: T3, SARS-CoV-2 M^pro (3CL Protease, 3CL^pro) (Severe acute respiratory syndrome coronavirus 2, UniProt P0DTD1); assay: biochemical
T3 construct: gene rep; untagged enzyme from BPS Bioscience kit; mature main protease nsp5 cut from replicase polyprotein 1ab (pp1a/pp1ab)

T1 sequence (O15393 109-492 limits assumed): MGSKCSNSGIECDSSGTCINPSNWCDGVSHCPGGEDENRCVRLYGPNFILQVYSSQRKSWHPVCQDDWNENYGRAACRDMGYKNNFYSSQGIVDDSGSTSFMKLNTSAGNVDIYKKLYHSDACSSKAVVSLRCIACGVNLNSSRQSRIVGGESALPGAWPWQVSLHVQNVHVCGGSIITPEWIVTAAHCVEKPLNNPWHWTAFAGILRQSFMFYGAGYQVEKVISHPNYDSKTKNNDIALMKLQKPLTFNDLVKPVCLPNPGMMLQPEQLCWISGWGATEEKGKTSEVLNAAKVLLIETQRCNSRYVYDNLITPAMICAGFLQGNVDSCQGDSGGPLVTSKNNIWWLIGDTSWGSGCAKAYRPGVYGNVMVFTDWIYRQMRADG
T2 sequence (P09958 108-715): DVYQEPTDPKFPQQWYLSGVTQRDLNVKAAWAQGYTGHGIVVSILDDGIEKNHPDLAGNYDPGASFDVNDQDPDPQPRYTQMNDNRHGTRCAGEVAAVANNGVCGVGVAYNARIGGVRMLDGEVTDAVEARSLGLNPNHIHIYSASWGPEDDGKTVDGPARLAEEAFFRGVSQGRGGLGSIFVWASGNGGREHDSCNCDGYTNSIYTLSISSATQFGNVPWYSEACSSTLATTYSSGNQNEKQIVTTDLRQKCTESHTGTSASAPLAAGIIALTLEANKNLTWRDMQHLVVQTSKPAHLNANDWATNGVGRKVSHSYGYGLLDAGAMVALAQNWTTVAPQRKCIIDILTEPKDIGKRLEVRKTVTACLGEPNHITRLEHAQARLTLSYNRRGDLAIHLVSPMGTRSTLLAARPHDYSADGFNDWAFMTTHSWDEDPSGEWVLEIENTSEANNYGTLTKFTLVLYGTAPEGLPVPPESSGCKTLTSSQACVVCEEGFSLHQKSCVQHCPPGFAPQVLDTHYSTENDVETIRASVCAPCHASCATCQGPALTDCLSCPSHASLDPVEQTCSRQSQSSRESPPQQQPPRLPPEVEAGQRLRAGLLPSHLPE

N=C(N/N=C/c1ccncc1)c1nonc1NCNc1nonc1C(=N)N/N=C/c1ccncc1 [M3]
IC50 (human TMPRSS2): 50 ± 2 nM
IC50 (human furin): 90 ± 2 nM
IC50 [1]: 13 ± 3 nM
